The values below come from US11286246B2, “Pro-drugs and related methods” (Aposense LTD., priority 2015, dated 2022).

What all share (format): physicochemical
A short description of data set [1]: Reduction-induced cleavage with excess dithiothreitol (15 equiv), HPLC/MS. Particulars: 15 equiv DTT, DMSO/phosphate buffer pH 7, 37° C., argon. As for the experimental part: Dithiothreitol (DTT) is a reducing agent; once oxidized, it forms a stable six-membered ring, with an internal disulfide bond. Disulfide compound A was treated with excess dithiothreitol (15 equiv, aq. 0.5M, pH adjusted to 7 with phosphate buffer solution) in DMSO and phosphate buffer solution (pH 7) at 37° C. under an argon atmosphere. Two sets of samples were analyzed by HPLC/MS: at 6 and at 24 hours.
As expected, the peak at 24 hours was of larger amplitude (70% vs. 30%).

Data set [2] can be described thus: Reduction-induced cleavage with 100 equivalents of DTT, HPLC/MS. Particulars: 100 equiv DTT, DMSO/aqueous buffer pH 7.0, 37° C., argon. As for the experimental part: The experiment comprised incubation of Compound B with 100 equivalents of the reducing agent DTT (0.1 mL of 2 M solution), 1.0 mL DMSO in aqueous buffer (pH=7.0), at 37° C. under argon atmosphere. Three sets of samples were analyzed by HPLC/MS: at 1 hour, 6 hours, and at 24 hours. […] This structure was thereafter maintained throughout the experiment.
Importantly however, HPLC/MS also indicated the formation of Compound B3, indicating cleavage of Compound B2, at the carbamate bond, with release of the phenolic moiety, Compound B3:
There was evidence for such cleavage, with release of Compound B3, already at one hour of incubation, where 30% cleavage was detected. This increased to 90% of cleaved product at 6 hours, and full cleavage by 24 hours.

A short description of data set [3]: Reduction-induced cleavage with one equivalent of TCEP, HPLC-MS. As to conditions: room temperature, 18 hours. As for the experimental part:
(§1) A DMSO solution of Compound 5 was incubated at room temperature for 24 hours. […] The Compound was then incubated at room temperature with one equivalent of the reducing agent tris (2-carboxyethyl) phosphine (TCEP). […] Intact Compound 5; (ii). a product corresponding to Compound 5 with two reduced thiol groups (Product 1); (iii). a product corresponding to cleaved Fragment A; and (iv). a product corresponding to cleaved Fragment B.
(§2) However, in reductive conditions, conversion of the disulfide into free thiol groups takes place. Importantly, this step is evidently followed by an intramolecular reaction, with molecular cleavage at the carbamate moiety, conceivably related to nucleophilic attack on the respective carbonyl by a thiol or a thiolate group, conveniently located at the sixth atom position. Therefore, the Compound manifests selective reduction-dependent cleavage. The site of the nucleophilic attack is described in the following Scheme 4: […]

The nature of data set [4]: Stability of Compound 5 in DMSO solution (non-reductive environment), HPLC-MS. As to conditions: room temperature, 24 hours, no reducing agent. As for the experimental part: as §1, §2

Consider `CCCCCCN(C(=O)Oc1ccccc1)[C@H]1CCSSC1` [Compound A], for which, in data set [1] (6 hours), the “cleavage (peak amplitude of cleavage product A3)” value was 30% and the “reduction of the disulphide bond (A2)” value is reported as “clearly visible”. Also, the “cleavage (peak amplitude of cleavage product A3)” value in data set [1] (24 hours) was 70%.
As for `C[C@]12CC[C@@H]3c4cc(F)c(OC(=O)N(CCCO)C5CCSSC5)cc4CC[C@H]3[C@@H]1CC[C@@H]2OCCCOC(C(F)(F)F)(C(F)(F)F)C(F)(F)F` (stereo partly drawn) [Compound B], the results for the “cleavage with release of Compound B3” value in data set [2] (6 hours), in data set [2] (24 hours) and in data set [2] (one hour) were 90%, “full cleavage” and 30%, respectively. Besides, in data set [2] (one hour), the “reduction of the disulphide bond (conversion of Compound B to Compound B2)” value was “full conversion”.
Consider `C[C@]12CC[C@@H]3c4ccc(OC(=O)N(CCCCCCO)C5CCSSC5)cc4CC[C@H]3[C@@H]1CC[C@@H]2OCCCOC(C(F)(F)F)(C(F)(F)F)C(F)(F)F` (stereo partly drawn) [Compound 5], for which the “HPLC-MS products after incubation with reducing agent (intact compound, reduced Product 1, cleaved Fragment A, cleaved Fragment B)” value in data set [3] is listed as “four distinct peaks”. The “stability of the DMSO solution by HPLC-MS” value in data set [4] is “stable and intact”.
